Measurements from ChEMBL document CHEMBL1201862, “PubChem BioAssay data set” (2004).
Values belong to the compound of their own block, whether it stands above or below them. Active and inactive are the calls of the source. Rule as the data show it, for most assays here: actives have a measured IC50 and inactives only a lower limit.

Columns and labels:
[1] = target: T1, Tyrosine-protein phosphatase non-receptor type 7 (Homo sapiens, UniProt P35236); format: functional
T1 sequence (P35236 whole entry): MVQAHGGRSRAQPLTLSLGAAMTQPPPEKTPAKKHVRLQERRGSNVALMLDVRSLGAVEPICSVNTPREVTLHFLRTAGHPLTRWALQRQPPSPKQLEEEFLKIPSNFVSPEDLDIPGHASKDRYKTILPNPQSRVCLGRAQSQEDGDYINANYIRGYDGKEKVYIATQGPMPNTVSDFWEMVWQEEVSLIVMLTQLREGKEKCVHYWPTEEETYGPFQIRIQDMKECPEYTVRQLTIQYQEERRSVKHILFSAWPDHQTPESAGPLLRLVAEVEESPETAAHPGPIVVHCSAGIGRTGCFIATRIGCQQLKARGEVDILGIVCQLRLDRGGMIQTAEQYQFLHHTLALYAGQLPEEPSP

[2] = target: Glyceraldehyde-3-phosphate dehydrogenase (Homo sapiens, UniProt P04406)
Glyceraldehyde-3-phosphate dehydrogenase, sequence (P04406 whole entry): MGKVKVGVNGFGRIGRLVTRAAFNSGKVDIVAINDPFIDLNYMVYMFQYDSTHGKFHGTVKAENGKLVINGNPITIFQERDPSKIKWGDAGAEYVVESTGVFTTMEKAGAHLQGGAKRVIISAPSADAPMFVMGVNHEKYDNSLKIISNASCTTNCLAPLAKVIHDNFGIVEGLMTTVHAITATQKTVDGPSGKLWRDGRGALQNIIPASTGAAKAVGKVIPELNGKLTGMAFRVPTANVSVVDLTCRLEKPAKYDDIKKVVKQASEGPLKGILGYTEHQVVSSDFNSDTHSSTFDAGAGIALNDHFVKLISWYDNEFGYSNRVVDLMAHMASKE

[3] = target: T2, Dual specificity protein phosphatase 6 (Rattus norvegicus, UniProt Q64346)
T2 sequence (Q64346 whole entry): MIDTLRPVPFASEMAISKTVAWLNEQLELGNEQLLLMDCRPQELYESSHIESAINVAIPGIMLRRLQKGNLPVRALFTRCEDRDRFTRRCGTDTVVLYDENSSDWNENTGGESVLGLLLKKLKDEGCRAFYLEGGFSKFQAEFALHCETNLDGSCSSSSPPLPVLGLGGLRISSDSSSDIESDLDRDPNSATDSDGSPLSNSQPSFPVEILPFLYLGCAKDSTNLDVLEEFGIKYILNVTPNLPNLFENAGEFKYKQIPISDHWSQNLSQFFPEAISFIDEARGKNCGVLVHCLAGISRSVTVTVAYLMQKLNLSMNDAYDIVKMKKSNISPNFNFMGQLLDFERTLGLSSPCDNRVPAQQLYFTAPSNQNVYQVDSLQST

[4] = target: T2, Dual specificity protein phosphatase 6; format: functional
[5] = target: T3, Mannose-6-phosphate isomerase (Homo sapiens, UniProt P34949); test: human PMI inhibitors, high substrate, primary screen, biochemical, fluorescence intensity, high mannose 6-phosphate (AID 1220)
T3 sequence (P34949 whole entry): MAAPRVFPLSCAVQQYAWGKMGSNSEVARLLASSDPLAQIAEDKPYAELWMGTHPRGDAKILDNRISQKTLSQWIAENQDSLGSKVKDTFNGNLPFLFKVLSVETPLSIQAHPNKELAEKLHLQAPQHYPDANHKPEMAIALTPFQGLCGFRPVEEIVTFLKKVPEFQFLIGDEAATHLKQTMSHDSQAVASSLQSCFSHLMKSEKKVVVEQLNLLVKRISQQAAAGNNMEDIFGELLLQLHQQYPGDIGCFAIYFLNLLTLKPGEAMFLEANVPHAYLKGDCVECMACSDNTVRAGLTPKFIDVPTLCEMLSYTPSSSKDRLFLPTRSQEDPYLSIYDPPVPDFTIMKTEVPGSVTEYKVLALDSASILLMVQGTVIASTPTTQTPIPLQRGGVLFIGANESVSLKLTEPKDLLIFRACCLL

[6] = target: Lysine-specific demethylase 4C (Homo sapiens, UniProt Q9H3R0); test: GASC-1 (JMJD2C) histone demethylase inhibitors, dose response, biochemical, DELFIA europium, cherry-picked samples (AID 488835); format: functional
Lysine-specific demethylase 4C, sequence (Q9H3R0 whole entry): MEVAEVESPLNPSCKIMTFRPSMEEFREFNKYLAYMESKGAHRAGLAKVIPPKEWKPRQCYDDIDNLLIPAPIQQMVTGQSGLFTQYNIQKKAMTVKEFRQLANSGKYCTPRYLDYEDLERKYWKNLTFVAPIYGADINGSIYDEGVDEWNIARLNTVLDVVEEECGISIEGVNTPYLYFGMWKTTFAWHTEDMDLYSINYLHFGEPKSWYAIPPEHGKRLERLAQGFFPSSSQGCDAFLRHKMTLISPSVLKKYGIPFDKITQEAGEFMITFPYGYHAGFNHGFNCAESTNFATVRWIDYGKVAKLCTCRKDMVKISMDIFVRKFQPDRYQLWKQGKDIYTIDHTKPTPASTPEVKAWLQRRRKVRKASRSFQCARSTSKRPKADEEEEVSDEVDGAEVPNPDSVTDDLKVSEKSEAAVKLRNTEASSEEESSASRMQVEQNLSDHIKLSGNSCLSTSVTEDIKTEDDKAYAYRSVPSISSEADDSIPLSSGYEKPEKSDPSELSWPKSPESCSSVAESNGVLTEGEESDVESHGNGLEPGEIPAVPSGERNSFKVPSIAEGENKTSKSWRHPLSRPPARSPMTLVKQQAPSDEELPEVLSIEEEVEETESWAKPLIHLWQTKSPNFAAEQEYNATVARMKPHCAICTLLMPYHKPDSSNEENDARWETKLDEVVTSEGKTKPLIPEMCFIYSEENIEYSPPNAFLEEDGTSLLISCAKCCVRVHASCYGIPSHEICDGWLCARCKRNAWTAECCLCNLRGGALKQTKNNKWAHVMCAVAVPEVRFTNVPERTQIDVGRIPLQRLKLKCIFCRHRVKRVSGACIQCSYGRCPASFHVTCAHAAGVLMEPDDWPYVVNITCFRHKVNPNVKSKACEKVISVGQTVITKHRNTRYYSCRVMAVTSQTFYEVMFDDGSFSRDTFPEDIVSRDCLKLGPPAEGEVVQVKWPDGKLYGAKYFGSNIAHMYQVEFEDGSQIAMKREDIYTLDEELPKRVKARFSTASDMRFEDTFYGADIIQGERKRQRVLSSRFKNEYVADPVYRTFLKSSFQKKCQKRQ

[7] = THP-1 cell cytotoxicity, dose response, cytotoxicity control for Vif-APOBEC3G degradation inhibitor project, THP-1 cells (AID 1117359); format: functional; conditions: Human immunodeficiency virus 1, THP-1
Tumor necrosis factor = Tumor necrosis factor (Homo sapiens, UniProt P01375); test: TNFa-triggered NF-kB activation inhibitors, SAR follow-up, cell-based, revised (AID 2337); format: functional
Tumor necrosis factor, sequence (P01375 whole entry, the tested form may be a part): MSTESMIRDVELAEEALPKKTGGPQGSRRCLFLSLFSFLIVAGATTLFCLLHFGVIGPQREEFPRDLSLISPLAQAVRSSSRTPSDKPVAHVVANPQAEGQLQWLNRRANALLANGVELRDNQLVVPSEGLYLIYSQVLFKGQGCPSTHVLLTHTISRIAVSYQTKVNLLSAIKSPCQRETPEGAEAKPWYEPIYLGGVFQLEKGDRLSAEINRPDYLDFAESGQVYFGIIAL

[8] = target: T4, Nucleotide-binding oligomerization domain-containing protein 1 (Homo sapiens, UniProt Q9Y239); test: NOD1 signaling inhibitors, SAR follow-up, revised (AID 2333); format: functional
T4 sequence (Q9Y239 whole entry): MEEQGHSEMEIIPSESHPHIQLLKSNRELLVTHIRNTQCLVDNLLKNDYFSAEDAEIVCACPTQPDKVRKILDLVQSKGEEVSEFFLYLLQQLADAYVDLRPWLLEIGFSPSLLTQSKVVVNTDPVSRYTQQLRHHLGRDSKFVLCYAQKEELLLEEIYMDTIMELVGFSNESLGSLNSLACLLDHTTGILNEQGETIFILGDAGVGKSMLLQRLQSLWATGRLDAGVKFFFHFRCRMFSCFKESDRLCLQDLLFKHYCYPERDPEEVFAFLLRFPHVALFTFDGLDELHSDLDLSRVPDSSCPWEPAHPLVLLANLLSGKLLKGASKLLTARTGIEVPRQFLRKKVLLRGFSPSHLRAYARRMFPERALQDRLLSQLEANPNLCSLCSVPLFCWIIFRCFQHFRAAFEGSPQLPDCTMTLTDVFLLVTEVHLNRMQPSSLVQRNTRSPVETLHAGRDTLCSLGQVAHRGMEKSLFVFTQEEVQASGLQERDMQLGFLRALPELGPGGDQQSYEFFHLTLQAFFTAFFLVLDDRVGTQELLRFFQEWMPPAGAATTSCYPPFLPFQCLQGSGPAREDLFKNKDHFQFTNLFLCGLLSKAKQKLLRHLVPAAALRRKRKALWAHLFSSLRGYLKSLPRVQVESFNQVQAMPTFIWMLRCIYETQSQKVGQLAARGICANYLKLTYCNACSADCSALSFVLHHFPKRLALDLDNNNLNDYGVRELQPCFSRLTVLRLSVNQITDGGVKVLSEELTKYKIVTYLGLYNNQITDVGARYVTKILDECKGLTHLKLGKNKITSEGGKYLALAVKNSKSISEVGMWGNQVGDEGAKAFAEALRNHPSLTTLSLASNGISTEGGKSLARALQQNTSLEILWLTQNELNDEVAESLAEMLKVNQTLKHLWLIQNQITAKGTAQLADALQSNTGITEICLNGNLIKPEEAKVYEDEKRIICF

HEK293 = test: cells; conditions: Homo sapiens;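 also: cells exposed to compound for 14 hours overnight before viability readout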
Mu-type opioid receptor [9] = target: T5, Mu-type opioid receptor (Homo sapiens, UniProt P35372); test: MOR agonists by imaging, SAR follow-up, image-based (AID 2352); format: functional
T5 sequence (P35372 whole entry): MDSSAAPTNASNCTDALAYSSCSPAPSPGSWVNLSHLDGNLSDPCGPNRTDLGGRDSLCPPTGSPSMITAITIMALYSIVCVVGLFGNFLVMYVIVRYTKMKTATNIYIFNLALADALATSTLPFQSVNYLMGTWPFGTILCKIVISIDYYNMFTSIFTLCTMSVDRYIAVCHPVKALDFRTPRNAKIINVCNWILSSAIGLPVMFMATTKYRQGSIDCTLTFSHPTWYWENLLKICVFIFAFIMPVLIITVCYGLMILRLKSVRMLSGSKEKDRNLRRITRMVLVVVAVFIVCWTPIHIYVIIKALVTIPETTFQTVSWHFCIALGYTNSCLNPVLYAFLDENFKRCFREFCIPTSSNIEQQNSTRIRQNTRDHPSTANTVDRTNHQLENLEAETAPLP

[10] = target: T6, Delta-type opioid receptor (Homo sapiens, UniProt P41143); test: DOR agonists, SAR follow-up, image-based (AID 2370); format: functional
T6 sequence (P41143 whole entry): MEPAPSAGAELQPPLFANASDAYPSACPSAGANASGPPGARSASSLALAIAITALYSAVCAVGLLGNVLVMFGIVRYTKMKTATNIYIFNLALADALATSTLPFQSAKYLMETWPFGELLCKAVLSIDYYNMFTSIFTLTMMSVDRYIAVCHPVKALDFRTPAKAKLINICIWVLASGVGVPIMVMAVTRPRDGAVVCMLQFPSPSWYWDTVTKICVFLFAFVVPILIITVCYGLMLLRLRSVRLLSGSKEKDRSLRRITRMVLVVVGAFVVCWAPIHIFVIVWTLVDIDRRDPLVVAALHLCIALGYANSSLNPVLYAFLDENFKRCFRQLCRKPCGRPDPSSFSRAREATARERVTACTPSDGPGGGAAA

[11] = target: T7, Kappa-type opioid receptor (Homo sapiens, UniProt P41145); test: KOR antagonists by imaging, SAR follow-up, image-based (AID 2348); format: functional
T7 sequence (P41145 whole entry): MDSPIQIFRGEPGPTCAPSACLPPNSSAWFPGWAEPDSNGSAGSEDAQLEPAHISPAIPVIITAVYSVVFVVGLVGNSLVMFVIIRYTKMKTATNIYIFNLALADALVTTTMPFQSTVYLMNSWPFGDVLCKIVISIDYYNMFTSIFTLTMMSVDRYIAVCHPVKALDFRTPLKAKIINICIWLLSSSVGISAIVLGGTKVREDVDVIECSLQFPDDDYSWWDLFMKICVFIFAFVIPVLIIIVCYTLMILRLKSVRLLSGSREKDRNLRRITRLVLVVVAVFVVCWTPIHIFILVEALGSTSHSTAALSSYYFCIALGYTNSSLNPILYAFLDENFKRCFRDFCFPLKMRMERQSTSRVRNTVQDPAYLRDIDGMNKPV

Mu-type opioid receptor [12] = target: T5, Mu-type opioid receptor; test: MOR antagonists, SAR follow-up, image-based (AID 2420); format: functional;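 also: compounds added before stimulation of receptor with agonist DAMGO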
[13] = target: T7, Kappa-type opioid receptor; test: KOR agonist analogs, imaging readout, SAR follow-up, image-based (AID 2359); format: functional
[14] = target: T6, Delta-type opioid receptor; test: DOR antagonists, SAR follow-up, image-based (AID 2357); format: functional
[15] = target: T7, Kappa-type opioid receptor; test: kappa opioid receptor blockers, cell-based, luminescence, beta-arrestin, SAR follow-up (AID 2285); format: functional

IC50 [1]: > 100 µM (not active)
IC50 [2]: 27.4 µM (active)
IC50 [3]: > 100 µM (inactive)
IC50 [4]: > 100 µM (inactive)
SMILES: O=C(Cc1cccs1)Nc1ccon1

IC50 [5]: 23.6 µM (active)
AC50 [6]: 4.02 µM (active)
SMILES: Oc1cccc(/C=N/NC(=S)NCCN2CCOCC2)c1O
CC50 [7]: 17.9 µM (active)

SMILES: COC(=O)CC1=NN(c2nc3ccccc3s2)C(=O)/C1=C(/C)Nc1ccc(Cl)cc1
IC50 (Tumor necrosis factor): 0.0369 µM (active)
IC50 [8]: < 0.0391 µM (active)
IC50 (HEK293): > 20 µM (inactive)

EC50 (Mu-type opioid receptor [9]): > 32 µM (inactive)
EC50 [10]: > 32 µM (inactive)
IC50 [11]: > 32 µM (inactive)
IC50 (Mu-type opioid receptor [12]): > 32 µM (inactive)
EC50 [13]: > 32 µM (inactive)
IC50 [14]: > 32 µM (inactive)
IC50 [15]: > 10 µM (inactive)
SMILES: Cc1ccc(S(=O)(=O)NCc2ccc(C(=O)N3CCN(Cc4ccccc4)CC3)cc2)cc1
